In PubChem BioAssay (NCI):
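Results reflect a 48-hour exposure of cells in 96-well plates to compound at five concentrations. TGI: total growth inhibition.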

What was measured:
Assay in all cases: NCI anticancer screen, dose series, 48 h
[1] = tested on: M14 melanoma
[2] = tested on: SN12C renal
[3] = tested on: UACC-62 melanoma
[4] = tested on: HOP-92 NSCLC
[5] = tested on: CAKI-1 renal
[6] = tested on: RPMI-8226 leukemia
[7] = tested on: HS 578T breast
[8] = tested on: NCI-H522 lung
[9] = tested on: SK-OV-3 ovarian
[10] = tested on: ACHN renal

Row | Compound | TGI [1] [µM] | TGI [2] [µM] | TGI [3] [µM] | TGI [4] [µM] | TGI [5] [µM] | TGI [6] [µM] | TGI [7] [µM] | TGI [8] [µM] | TGI [9] [µM] | TGI [10] [µM]
1 | O=[N+]([O-])c1ccc2c(c1)n1c(N3CCCC3)[n+]3ccccc3c1c1c3cccc[n+]3c(N3CCCC3)n21 | > 100 | > 100 | > 100 | > 100 | > 100 | > 100 | > 100 | > 100 | – | –
2 | CC(C)(CN1CCCCC1)C(/C=C/c1ccccc1)=N\NC(=O)N/N=C(/C=C/c1ccccc1)C(C)(C)CN1CCCCC1 | 3.19 | 4.03 | 2.89 | 3.76 | 5.61 | 3.96 | 5.92 | 3.35 | 9.52 | 11.9
3 | COC(=O)/C=C1\C(=O)C=C2[C@@H]3C[C@H]4C[C@H](CC[C@@]4(C)N21)C3(C)NC(C)=O (stereo partly specified) | 26.4 | 26.6 | 35 | 47.5 | 26.3 | > 100 | 39 | 3.6 | 55.7 | 46
4 | CC1=NN2C(=N)/C(=C/c3ccccc3)C(=O)N=C2S1 | > 100 | > 100 | > 100 | > 100 | > 100 | > 100 | > 100 | > 100 | > 100 | > 100
5 | COc1ccc(C2SCC(=O)N2NC(=O)C(C)Oc2ccc(Cl)cc2Cl)cc1 (stereo unspecified) | > 100 | > 100 | > 100 | 63.6 | 47.3 | > 100 | > 100 | > 100 | > 100 | > 100
6 | COc1ccc(NC(=O)CC(=O)N2N=C(N(c3ccccc3)c3ccccc3)CC2c2ccccc2)cc1 (stereo unspecified) | > 100 | > 100 | > 100 | > 100 | > 100 | > 100 | > 100 | > 100 | > 100 | > 100
7 | Clc1nc2c(C#Cc3ccccc3)ncnc2n1C1CCCCO1 (stereo unspecified) | 25.9 | 23 | 27 | 34 | 28.1 | 35.8 | 99.5 | 25.1 | > 100 | 30.9
8 | CC1CN=C(c2ccc(CN3CCC(C4CCN(Cc5ccc(C6=NCC(C)N6)cc5)CC4)CC3)cc2)N1 (stereo unspecified) | 44 | 37 | 41.7 | > 100 | > 100 | 46.2 | 41.8 | 33.7 | 53.9 | 75.9
9 | C[C@]12CC[C@H]3[C@@H](CCC4=C(Br)C(=O)C=C[C@@]43O)[C@@H]1CCC2=O | > 100 | > 100 | > 100 | 75.9 | > 100 | > 100 | > 100 | 38.1 | > 100 | > 100
10 | Cc1nc(Nc2nc3ccccc3[nH]2)nc(Cl)c1CCCl | > 100 | > 100 | > 100 | 90.3 | > 100 | > 100 | > 100 | > 100 | – | > 100
11 | C/C(=N/NC(=S)N1CCN(C(=S)N/N=C(/C)c2ccccn2)CC1)c1ccccn1 | 38.5 | > 100 | > 100 | > 100 | > 100 | > 100 | > 83.8 | 99.2 | > 100 | > 44.1
12 | Cc1nc2cccc(F)c2c(=O)n1-c1nnc(C(F)(F)F)s1 | > 10 | > 10 | > 10 | > 10 | > 10 | > 10 | > 10 | > 10 | > 10 | > 10
13 | COc1cc2c(cc1O)CCN(C)[C@H]2Cc1ccc(Oc2c(O)c(OC)cc3c2C[C@H]2c4c(c(OC)c(OC)c(OC)c4-3)CCN2C)cc1 | 10.9 | 10.7 | 9.44 | 7.17 | 10.9 | 5.09 | 17.7 | 11.2 | 10.5 | 10.7
14 | O=C1C(Cl)=C(c2ccc([N+](=O)[O-])cc2)C(=O)c2c(O)cccc21 | 3.66 | 10.7 | 1.98 | 3.15 | 3.86 | > 100 | 4.13 | 0.545 | 8.64 | 2.36
15 | COc1cc(C)cc2c(-c3c(O)cc(O)c4c3C[C@H](C)N[C@H]4C)cc(-c3cc(-c4c(O)cc(O)c5c4C[C@H](C)N[C@H]5C)c4cc(C)cc(OC)c4c3O)c(O)c12 | > 100 | > 100 | > 100 | > 100 | > 100 | > 100 | > 100 | > 100 | > 100 | > 100
16 | O=C1/C(=C/c2ccc(O)cc2)CCC1CNc1ccccc1 (stereo unspecified) | 28.1 | 29.2 | 28.7 | 27.9 | 26.5 | 5.12 | 57.6 | 6.95 | 43.9 | 24.8

Row | Compound | TGI [1] [µM] | TGI [2] [µM] | TGI [3] [µM] | TGI [4] [µM] | TGI [5] [µM] | TGI [6] [µM] | TGI [7] [µM] | TGI [8] [µM] | TGI [9] [µM] | TGI [10] [µM]
17 | O=C(O)CCSC1=NCCN1 | > 100 | > 100 | > 100 | > 100 | > 100 | > 100 | > 100 | > 100 | > 100 | > 100
18 | COc1ccccc1NC(=S)N/N=C/c1ccccn1 | 7.69 | 5.15 | 3.75 | 29 | 16.8 | > 22.6 | > 46.4 | 10.9 | 34.8 | 8.9
19 | CC1=CC[C@](C)(O)[C@@]2(C)CC[C@H]3C(=C(C)C)C(=O)C[C@]3(C)C[C@H]12 | > 50 | > 50 | 47.1 | > 50 | > 50 | 26.2 | > 50 | 31.5 | > 50 | > 50
20 | CCN(CC)C1Oc2cc3c(cc2C(c2cc(OC)c(OC)c(OC)c2)C1C)OCO3 (stereo unspecified) | > 37.9 | > 53.8 | 98.5 | 96.5 | > 44.2 | 20.2 | > 100 | 6.01 | > 61.7 | > 38.7
21 | COc1cc(S(=O)(=O)Nc2ccc(-c3csc(/N=C\c4ccccc4)n3)cc2)ccc1Cl | > 100 | > 100 | > 100 | > 100 | > 100 | > 100 | > 100 | > 100 | > 100 | > 100
22 | CC(=O)Nc1ccc(/C=C2/NC(=S)N(/C=C3\C(=O)Oc4ccccc4C3=O)C2=O)cc1 | > 100 | > 100 | > 100 | > 100 | > 100 | > 100 | > 100 | > 100 | > 100 | > 100
23 | O=C(NCCCCCCO)c1cccc2cc3ccccc3nc12 | – | 49.5 | 35.2 | > 100 | 36.1 | 47.3 | 71.9 | 28.8 | 47.4 | 39.2
24 | CNC(=O)N(CCC#N)CCCN(C(=O)N(C)C)c1ccccc1 | > 100 | > 100 | > 100 | > 100 | > 100 | > 100 | > 100 | > 100 | > 100 | > 100
25 | CC(=Nc1cc(Cl)cc(Cl)c1)c1ccncc1 | > 100 | > 100 | > 100 | > 100 | > 100 | > 100 | > 100 | > 100 | > 100 | > 100
26 | COC(=O)C1CC23C=CCN4CC(C2C)C2(c5ccccc5NC12)C43 (stereo unspecified) | > 100 | > 100 | > 100 | > 100 | > 100 | > 100 | > 100 | > 100 | > 100 | > 100
27 | Nc1ccc2c(c1)NC(=O)[C@@H]1CCCN1C2=O | > 100 | > 100 | > 100 | > 100 | > 100 | > 100 | > 100 | > 100 | > 100 | > 100
28 | O=c1[nH]c2cc([N+](=O)[O-])c(Nc3c4ccccc4nc4ccccc34)c([N+](=O)[O-])c2[nH]1 | 5.14 | 9.1 | 4.53 | 18.5 | 7.96 | 8.25 | > 28.9 | 3.63 | 24.7 | 16.7
29 | CC(=O)NC(=O)NC1=NCCC(=O)N1CCc1c[nH]c2ccccc12 | > 100 | > 100 | > 100 | > 100 | > 100 | > 100 | > 100 | > 100 | > 100 | > 100
30 | CC1CN=C(c2ccc(-c3nc(-c4ccc(C5=NCC(C)N5)cc4)nc(N(C)C)n3)cc2)N1 (stereo unspecified) | 8.68 | 3.87 | 3.41 | 11.3 | 32 | 17.9 | 17.6 | 3.2 | 5.54 | 11.5
31 | CCN(CCCl)c1cccc(NC(=O)c2ccc(C(=O)Nc3cccc(CN(C)C)c3)cc2)c1 | 0.86 | 2.44 | 0.309 | 1.6 | 1.58 | 27 | 0.399 | 0.0342 | 4.13 | 0.624
32 | COc1ccc(OC)c(C[P+](c2ccccc2)(c2ccccc2)c2ccccc2)c1 | 18.3 | > 100 | 12.8 | 4.39 | 56 | 6.39 | 8.45 | > 39.4 | 11 | > 64.2
